Source: ChEMBL document CHEMBL1201862, “PubChem BioAssay data set” (2004)
The source made the active and inactive calls.

Experiments:
[1] = biological target: T1, Tyrosine-protein phosphatase non-receptor type 7 (Homo sapiens, UniProt P35236); type: functional
T1 sequence (P35236 whole entry): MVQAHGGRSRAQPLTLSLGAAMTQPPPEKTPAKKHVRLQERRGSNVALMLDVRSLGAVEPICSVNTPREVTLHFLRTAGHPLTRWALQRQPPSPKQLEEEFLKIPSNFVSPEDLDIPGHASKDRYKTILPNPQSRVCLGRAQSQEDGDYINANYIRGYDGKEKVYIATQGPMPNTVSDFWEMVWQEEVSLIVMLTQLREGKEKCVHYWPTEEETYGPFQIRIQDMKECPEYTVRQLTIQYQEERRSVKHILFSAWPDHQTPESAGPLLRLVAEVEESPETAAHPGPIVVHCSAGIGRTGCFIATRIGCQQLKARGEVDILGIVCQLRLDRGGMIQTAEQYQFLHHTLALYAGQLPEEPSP

[2] = biological target: T2, Tyrosine-protein phosphatase non-receptor type 22 (Homo sapiens, UniProt Q9Y2R2); type: functional
T2 sequence (Q9Y2R2 whole entry): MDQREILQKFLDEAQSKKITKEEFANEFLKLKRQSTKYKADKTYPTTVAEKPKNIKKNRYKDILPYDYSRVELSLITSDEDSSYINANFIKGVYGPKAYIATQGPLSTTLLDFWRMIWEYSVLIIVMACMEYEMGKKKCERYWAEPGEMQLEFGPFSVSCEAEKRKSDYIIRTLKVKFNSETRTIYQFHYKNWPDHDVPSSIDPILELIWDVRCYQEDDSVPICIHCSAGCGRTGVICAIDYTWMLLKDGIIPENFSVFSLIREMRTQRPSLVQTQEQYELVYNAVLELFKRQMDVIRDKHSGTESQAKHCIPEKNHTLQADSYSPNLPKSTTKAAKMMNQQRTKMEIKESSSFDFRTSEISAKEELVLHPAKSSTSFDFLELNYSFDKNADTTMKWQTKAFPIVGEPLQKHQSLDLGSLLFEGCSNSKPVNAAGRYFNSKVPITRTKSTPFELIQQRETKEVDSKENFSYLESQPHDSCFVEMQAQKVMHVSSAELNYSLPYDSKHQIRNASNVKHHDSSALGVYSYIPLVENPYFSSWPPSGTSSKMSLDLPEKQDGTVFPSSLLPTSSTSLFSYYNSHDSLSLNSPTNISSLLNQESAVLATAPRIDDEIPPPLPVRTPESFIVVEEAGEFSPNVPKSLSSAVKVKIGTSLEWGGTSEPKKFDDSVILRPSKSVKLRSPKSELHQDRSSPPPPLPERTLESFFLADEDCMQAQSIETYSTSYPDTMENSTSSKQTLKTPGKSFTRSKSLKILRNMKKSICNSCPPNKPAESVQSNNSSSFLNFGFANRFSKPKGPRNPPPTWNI

[3] = biological target: T2, Tyrosine-protein phosphatase non-receptor type 22; type: functional; remark: listed apart in the source
[4] = biological target: T3, Rac GTPase-activating protein 1 (Homo sapiens, UniProt Q9H0H5); test: blockers of MgcRacGAP-driven Rac1 GTP hydrolysis – biochemical, ADP Hunter fluorescence, primary and confirmatory, confirmation (AID 624330); type: functional
T3 sequence (Q9H0H5 whole entry): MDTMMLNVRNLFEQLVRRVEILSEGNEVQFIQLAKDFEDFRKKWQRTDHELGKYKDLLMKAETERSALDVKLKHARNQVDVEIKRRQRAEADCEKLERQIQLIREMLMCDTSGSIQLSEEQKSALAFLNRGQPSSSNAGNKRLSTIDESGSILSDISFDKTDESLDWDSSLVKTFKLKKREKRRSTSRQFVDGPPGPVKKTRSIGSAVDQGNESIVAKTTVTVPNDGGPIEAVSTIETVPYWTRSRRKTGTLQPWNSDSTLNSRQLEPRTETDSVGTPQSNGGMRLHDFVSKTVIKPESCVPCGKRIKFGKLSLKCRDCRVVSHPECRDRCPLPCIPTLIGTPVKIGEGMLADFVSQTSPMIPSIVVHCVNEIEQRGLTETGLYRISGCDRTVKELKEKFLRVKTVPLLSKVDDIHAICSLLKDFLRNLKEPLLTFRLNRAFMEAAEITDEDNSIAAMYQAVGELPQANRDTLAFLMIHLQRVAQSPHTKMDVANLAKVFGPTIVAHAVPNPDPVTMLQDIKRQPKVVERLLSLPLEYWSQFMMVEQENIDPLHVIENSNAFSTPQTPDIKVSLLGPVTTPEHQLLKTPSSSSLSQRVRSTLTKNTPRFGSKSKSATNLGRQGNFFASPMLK

[5] = biological target: T4, Delta-type opioid receptor (Homo sapiens, UniProt P41143); test: HTS Image-Based Screen for Antagonists of the DOR Receptor. [Related pubchem assays (depositor defined):AID1777, AID1785, AID1786, AID2133]; type: functional
Vero [6] = test: cells; type: functional; settings: Chlorocebus sabaeus
[7] = biological target: T4, Delta-type opioid receptor; test: HTS Image-Based Screen for Agonists of the DOR Receptor. [Related pubchem assays (depositor defined):AID1777, AID1786, AID2133]; type: functional
Vero [8] = test: cells; type: functional, cell-based; settings: Chlorocebus sabaeus
[9] = biological target: T5, Kappa-type opioid receptor (Homo sapiens, UniProt P41145); type: functional
[10] = biological target: T5, Kappa-type opioid receptor; type: functional; remark: listed apart in the source
Beta-galactosidase = Beta-galactosidase (Escherichia coli, UniProt Q8VNN2); type: functional
Mu-type opioid receptor [11] = biological target: T6, Mu-type opioid receptor (Homo sapiens, UniProt P35372); test: HTS Image-Based Screen for Agonists of the MOR Receptor. [Related pubchem assays (depositor defined):AID1777, AID1785, AID1786, AID2133]; type: functional
[12] = biological target: Sphingosine 1-phosphate receptor 4 (Homo sapiens, UniProt O95977); test: Fluorescence dose response cell-based high throughput screening assay for agonists of the Sphingosine 1-Phosphate Receptor 4 (S1P4). [Related pubchem assays: 1509 (Primary screen.), 1523 (Confirmation screen in triplicates.)]; type: functional
H4 = test: Luminescence Cell-Based Dose Response HTS to Identify Activators of 5'UTR Stem-Loop Driven Prion Protein mRNA Translation in H4 Neuroglioblastoma Cells. [Related pubchem assays: 1829 (Project Summary), 1814 (Primary HTS)]; type: functional; settings: Homo sapiens
[13] = biological target: Sphingosine 1-phosphate receptor 1 (Homo sapiens, UniProt P21453); test: Fluorescence-based counterscreen assay for S1P4 agonists: Cell-based dose response high throughput screening assay to identify agonists of the Sphingosine 1-Phosphate Receptor 1 (S1P1). [Related pubchem assays (depositor defined):AID1509, AID1523, AID1801, AID463107, AID463118, AID463119, AID463122, AID463123, AID463129, AID463225, AID504400, AID504460]; type: functional
[14] = Luminescence Cell-Based Dose Confirmation HTS to Identify Activators of 5'UTR Stem-Loop Driven Alpha-Synuclein mRNA Translation in H4 Neuroglioblastoma Cells. [Related pubchem assays: 1829 (Project Summary), 1814 (Primary HTS)]; type: functional
[15] = Luminescence Cell-Based Dose Response HTS to Identify Activators of Luciferase Translation or Activity in H4 […] Cells. [Related pubchem assays: 1829 (Project Summary), 1814 (Primary HTS)]; type: functional
[16] = biological target: T5, Kappa-type opioid receptor; test: kappa opioid receptor activation by imaging – image-based, set 3, SAR follow-up (AID 488833); type: functional
[17] = biological target: T4, Delta-type opioid receptor; test: SAR Analysis of Agonists of the DOR Receptor using an Image-Based Assay - Set 3. [Related pubchem assays (depositor defined):AID1777, AID1786]; type: functional
Mu-type opioid receptor [18] = biological target: T6, Mu-type opioid receptor; test: SAR Analysis of Agonists of the MOR Receptor using an Image-Based Assay - Set 3. [Related pubchem assays (depositor defined):AID1777, AID1785, AID1786, AID1966, AID2133, AID2136, AID2284, AID2285, AID2352]; type: functional
[19] = biological target: T5, Kappa-type opioid receptor; test: SAR analysis of small molecule agonists of the kappa opioid receptor via a luminescent beta-arrestin assay - Set 3. [Related pubchem assays (depositor defined):AID1777, AID1785, AID1786, AID1966, AID2133, AID2136, AID2284, AID2500]; type: functional
[20] = biological target: T7, Replicative DNA helicase DnaB (Mycobacterium tuberculosis, UniProt P9WMR3); test: DnaB Intein secondary assay Measured in Biochemical System Using Plate Reader - 2047-04_Inhibitor_Dose_DryPowder_Activity. [Related pubchem assays (depositor defined):AID2223]
T7 sequence (P9WMR3 whole entry): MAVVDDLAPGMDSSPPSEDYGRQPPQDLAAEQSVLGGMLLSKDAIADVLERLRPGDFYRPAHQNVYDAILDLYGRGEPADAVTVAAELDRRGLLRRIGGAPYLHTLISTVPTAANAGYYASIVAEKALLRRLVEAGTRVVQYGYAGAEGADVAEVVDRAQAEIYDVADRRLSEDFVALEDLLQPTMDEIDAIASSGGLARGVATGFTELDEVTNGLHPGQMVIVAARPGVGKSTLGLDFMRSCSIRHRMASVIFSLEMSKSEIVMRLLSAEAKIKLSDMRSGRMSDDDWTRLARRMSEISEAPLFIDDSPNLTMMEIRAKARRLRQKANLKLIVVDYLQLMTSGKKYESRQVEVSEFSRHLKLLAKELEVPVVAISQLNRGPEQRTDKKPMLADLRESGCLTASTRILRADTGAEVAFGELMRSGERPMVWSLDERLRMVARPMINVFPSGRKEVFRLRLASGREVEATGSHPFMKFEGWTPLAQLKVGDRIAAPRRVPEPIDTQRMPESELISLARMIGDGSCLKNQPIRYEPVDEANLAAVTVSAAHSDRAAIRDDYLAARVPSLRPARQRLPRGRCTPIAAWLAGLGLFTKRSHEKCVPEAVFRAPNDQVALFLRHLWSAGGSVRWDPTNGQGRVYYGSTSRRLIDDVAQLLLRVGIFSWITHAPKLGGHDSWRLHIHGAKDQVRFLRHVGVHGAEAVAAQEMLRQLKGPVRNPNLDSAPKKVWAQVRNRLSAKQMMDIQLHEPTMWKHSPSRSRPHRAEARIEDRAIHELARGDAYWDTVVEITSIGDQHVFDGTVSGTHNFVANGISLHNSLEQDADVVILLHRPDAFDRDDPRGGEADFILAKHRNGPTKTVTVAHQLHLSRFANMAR

[21] = biological target: T7, Replicative DNA helicase DnaB; test: DnaB intein splicing inhibitors, dose response, biochemical, cell-free fluorescence (AID 449749); type: functional
Protein RecA [22] = biological target: T8, Protein RecA (Mycobacterium tuberculosis, UniProt P9WHJ3); test: Fluorescence Cell-Free Homogeneous Dose Retest to Identify Inhibitors of RecA-Intein Splicing Activity. [Related pubchem assays (depositor defined):AID2097, AID2223, AID489010, AID492950]; type: functional
T8 sequence (P9WHJ3 whole entry): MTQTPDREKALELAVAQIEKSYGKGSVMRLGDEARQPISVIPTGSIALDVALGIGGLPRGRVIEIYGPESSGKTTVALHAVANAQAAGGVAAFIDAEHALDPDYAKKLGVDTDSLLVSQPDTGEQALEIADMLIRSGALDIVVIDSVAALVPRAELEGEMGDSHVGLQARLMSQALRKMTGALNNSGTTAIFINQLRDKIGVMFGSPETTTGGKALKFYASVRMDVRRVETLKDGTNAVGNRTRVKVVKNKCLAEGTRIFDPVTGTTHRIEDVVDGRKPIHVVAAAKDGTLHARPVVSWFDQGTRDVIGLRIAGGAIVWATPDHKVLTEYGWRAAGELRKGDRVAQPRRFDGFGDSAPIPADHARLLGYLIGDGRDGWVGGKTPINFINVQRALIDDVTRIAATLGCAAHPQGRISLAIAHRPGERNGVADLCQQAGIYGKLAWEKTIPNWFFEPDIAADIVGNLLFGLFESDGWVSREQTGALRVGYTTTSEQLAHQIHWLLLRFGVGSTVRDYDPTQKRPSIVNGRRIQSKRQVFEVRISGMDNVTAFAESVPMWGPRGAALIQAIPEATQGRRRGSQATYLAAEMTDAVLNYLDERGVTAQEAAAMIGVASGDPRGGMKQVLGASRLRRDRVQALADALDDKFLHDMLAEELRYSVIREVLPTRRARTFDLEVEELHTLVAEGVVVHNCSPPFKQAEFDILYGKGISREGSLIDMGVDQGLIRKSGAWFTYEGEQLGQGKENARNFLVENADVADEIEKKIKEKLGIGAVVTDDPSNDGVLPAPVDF

cells = type: functional
[23] = compounds quenching green fluorescent protein signal – biochemical, plate reader, dry powder, artefact control, dose response (AID 493243)
Protein RecA [24] = biological target: T8, Protein RecA; test: RecA Intein Measured in Biochemical System Using Plate Reader - 2047-02_Inhibitor_Dose_DryPowder_Activity. [Related pubchem assays (depositor defined):AID2223]; design: species or system Mycobacterium tuberculosis H37Rv

T4 sequence (P41143 whole entry): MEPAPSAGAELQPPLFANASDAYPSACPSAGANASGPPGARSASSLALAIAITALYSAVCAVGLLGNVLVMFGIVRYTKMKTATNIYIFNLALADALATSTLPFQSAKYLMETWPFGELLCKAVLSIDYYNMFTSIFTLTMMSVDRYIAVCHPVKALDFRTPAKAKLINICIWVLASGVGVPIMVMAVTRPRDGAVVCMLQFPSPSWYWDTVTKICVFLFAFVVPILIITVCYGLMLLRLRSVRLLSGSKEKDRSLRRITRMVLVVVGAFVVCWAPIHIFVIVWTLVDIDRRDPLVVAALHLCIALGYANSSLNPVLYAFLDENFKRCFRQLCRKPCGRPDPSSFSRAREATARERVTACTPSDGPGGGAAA
T5 sequence (P41145 whole entry): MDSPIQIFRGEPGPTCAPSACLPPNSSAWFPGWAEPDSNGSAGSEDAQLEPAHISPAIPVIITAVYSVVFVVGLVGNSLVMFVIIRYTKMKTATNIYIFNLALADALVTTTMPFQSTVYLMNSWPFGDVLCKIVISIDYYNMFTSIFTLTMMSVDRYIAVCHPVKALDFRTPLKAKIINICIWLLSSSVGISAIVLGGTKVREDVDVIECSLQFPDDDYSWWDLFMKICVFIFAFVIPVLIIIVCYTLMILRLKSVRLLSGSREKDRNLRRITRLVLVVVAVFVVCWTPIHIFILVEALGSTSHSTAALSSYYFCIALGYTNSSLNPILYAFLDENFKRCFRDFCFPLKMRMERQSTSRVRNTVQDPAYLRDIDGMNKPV
T6 sequence (P35372 whole entry): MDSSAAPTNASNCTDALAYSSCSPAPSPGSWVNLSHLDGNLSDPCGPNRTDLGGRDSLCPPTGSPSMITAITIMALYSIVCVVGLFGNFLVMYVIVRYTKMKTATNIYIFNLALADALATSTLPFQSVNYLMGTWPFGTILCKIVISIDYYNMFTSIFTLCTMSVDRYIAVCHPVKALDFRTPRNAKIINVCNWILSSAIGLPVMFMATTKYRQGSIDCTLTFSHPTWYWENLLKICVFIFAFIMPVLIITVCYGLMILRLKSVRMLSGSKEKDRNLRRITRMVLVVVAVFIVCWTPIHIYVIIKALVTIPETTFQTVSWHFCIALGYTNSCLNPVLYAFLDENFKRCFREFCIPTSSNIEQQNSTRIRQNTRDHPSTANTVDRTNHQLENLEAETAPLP
Beta-galactosidase, sequence (Q8VNN2 whole entry): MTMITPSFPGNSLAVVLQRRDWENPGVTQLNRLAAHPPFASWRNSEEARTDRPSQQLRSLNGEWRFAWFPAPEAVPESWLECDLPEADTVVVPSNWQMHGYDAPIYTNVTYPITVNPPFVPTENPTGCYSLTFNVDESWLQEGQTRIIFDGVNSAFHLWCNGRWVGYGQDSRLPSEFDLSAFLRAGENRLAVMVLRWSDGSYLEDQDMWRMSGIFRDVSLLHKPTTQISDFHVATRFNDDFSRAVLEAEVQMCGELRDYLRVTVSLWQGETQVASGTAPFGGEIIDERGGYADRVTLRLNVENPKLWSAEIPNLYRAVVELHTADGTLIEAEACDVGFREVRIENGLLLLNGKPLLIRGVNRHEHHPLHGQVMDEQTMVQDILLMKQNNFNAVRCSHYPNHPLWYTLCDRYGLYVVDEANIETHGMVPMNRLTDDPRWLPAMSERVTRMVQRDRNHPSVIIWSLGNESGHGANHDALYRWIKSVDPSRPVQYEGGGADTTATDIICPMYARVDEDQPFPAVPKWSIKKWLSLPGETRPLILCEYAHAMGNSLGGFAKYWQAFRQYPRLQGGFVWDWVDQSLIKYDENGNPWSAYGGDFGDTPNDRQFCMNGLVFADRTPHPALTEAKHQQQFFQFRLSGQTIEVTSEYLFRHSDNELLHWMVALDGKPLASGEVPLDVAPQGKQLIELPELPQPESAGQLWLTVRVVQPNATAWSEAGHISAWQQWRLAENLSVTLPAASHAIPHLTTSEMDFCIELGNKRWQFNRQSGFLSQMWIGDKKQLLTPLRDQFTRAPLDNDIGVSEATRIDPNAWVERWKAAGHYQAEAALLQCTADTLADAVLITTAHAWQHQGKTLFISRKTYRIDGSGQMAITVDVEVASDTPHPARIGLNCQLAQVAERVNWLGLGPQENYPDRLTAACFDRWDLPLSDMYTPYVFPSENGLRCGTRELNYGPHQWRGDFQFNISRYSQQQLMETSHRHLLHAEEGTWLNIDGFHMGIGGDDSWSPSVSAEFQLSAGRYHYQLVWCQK
Sphingosine 1-phosphate receptor 4, sequence (O95977 whole entry): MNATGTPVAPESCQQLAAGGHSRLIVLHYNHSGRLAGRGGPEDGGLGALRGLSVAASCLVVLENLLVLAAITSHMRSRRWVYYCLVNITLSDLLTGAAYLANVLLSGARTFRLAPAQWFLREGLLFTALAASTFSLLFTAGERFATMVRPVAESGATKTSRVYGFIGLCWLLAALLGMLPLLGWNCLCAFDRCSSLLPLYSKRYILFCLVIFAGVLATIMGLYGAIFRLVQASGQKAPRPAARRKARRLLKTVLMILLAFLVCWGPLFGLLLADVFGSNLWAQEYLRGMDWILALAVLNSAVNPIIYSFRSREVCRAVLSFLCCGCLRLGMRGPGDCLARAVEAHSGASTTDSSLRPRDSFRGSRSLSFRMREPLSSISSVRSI
Sphingosine 1-phosphate receptor 1, sequence (P21453 whole entry): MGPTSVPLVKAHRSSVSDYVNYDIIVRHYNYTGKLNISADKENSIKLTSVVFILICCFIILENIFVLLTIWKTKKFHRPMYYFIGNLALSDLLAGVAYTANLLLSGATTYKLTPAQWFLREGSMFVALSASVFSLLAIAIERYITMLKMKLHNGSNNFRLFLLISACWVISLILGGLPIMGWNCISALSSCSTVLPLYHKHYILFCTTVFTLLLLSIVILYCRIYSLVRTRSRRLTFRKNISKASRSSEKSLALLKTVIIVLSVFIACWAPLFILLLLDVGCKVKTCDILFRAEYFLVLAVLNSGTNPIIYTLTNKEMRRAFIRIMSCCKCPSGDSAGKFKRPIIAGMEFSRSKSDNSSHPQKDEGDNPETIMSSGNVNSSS

Structure (SMILES): COc1ccc(C2SCC(=O)N2CCCN(C)C)cc1 (configuration not stated)
- IC50 [1]: > 79.4 µM (inactive)
- IC50 [2]: > 79.4 µM (inactive)
- IC50 [3]: > 79.4 µM (inactive)

Structure (SMILES): COc1cc(/C=C/c2ccc3cccc(O)c3n2)ccc1O
- IC50 [4]: 72.4 µM (active)
- IC50 [5]: > 32 µM (inactive)
- CC50 (Vero [6]): 12.4 µM (active)
- EC50 [7]: > 32 µM (inactive)
- IC50 (Vero [8]): > 25 µM (active)
- IC50 [9]: > 32 µM
- IC50 [10]: 11.9 µM (active)
- EC50 (Beta-galactosidase): > 31.5 µM (inactive)
- EC50 (Mu-type opioid receptor [11]): > 32 µM (inactive)

Structure (SMILES): CC(=O)Oc1ccc2cc(-c3nc4ccccc4n3C)c(=O)oc2c1
- EC50 [12]: 191 µM (not active)
- EC50 (H4): 4.66 µM (active)
- EC50 [13]: > 49.8 µM (inactive)
- EC50 [14]: 94.4 µM (active)
- EC50 [15]: 53.2 µM (active)

Structure (SMILES): CC(=O)Oc1ccc(CSc2nnc(-c3ccccn3)n2Cc2cccs2)cc1
- EC50 [16]: > 32 µM (inactive)
- EC50 [17]: > 32 µM (inactive)
- EC50 (Mu-type opioid receptor [18]): > 32 µM (inactive)
- EC50 [19]: > 20 µM (inactive)

Structure (SMILES): C/C(=N\NC(=O)c1ccncc1)c1cc2ccccc2oc1=O
- AC50 [20]: 36.9 µM (active)
- AC50 [21]: 2.77 µM (active)
- EC50 (Protein RecA [22]): 2.86 µM (active)
- IC50 (cells): 0.55 µM (active)
- AC50 [23]: 218 µM (active)
- AC50 (Protein RecA [24]): 3.08 µM (active)
